Experimental data as given in PMC9977845 (2023).
Values belong to the molecule of their own block, whether it stands above or below them.

What was measured:
[1] = tested on: B2; d(CGCTAGCG)2 (DNA, duplex) CGCTAGCG; test: 2D NMR (NOESY) and restrained MD structure; conditions: Na+ 10 mM (NaCl); 2.5 mM cacodylate pH 5.0; 5 °C; intercalation at TA/TA
[2] = tested on: B1; d(CGGTACCG)2 (DNA, duplex) CGGTACCG; test: UV-VIS titration, chemometric (PCA) Scatchard analysis; conditions: Na+ 10 mM (NaCl); 2.5 mM cacodylate pH 5.0; 0.01 mM ligand; microscopic constant
[3] = tested on: B2; d(CGCTAGCG)2 (DNA, duplex) CGCTAGCG; test: as above; conditions: Na+ 10 mM (NaCl); 2.5 mM cacodylate pH 5.0; 0.01 mM ligand; microscopic constant
[4] = tested on: B3; D2; d(CGATATCG)2 (DNA, duplex) CGATATCG; test: as above; conditions: Na+ 10 mM (NaCl); 2.5 mM cacodylate pH 5.0; 0.01 mM ligand; microscopic constant
[5] = tested on: B4; d(CGTTAACG)2 (DNA, duplex) CGTTAACG; test: as above; conditions: Na+ 10 mM (NaCl); 2.5 mM cacodylate pH 5.0; 0.01 mM ligand; microscopic constant
[6] = tested on: D4 (DNA, duplex) GGGTACCC; test: 1H NMR; conditions: Na+ 10 mM (NaCl), 2.5 mM cacodylate pH 5.0
[7] = tested on: B3; D2; d(CGATATCG)2 (DNA, duplex) CGATATCG; test: 1H NMR titration; conditions: Na+ 10 mM (NaCl), 2.5 mM cacodylate pH 5.0, unspecific
[8] = tested on: D1 (DNA, duplex) CCCGGG; test: 1H NMR; conditions: Na+ 10 mM (NaCl); 2.5 mM cacodylate pH 5.0; intercalation at CG/CG
[9] = tested on: D7 (DNA, duplex) GTACGTAC; test: 1H NMR; conditions: Na+ 10 mM (NaCl); 2.5 mM cacodylate pH 5.0; intercalation at TA/TA
[10] = tested on: D8 (DNA, duplex) CTAGCTAG; test: 1H NMR; conditions: Na+ 10 mM (NaCl); 2.5 mM cacodylate pH 5.0; intercalation at TA/TA
[11] = tested on: B3; D2; d(CGATATCG)2 (DNA, duplex) CGATATCG; test: 2D NMR (NOESY) and restrained MD structure; conditions: Na+ 10 mM (NaCl); 2.5 mM cacodylate pH 5.0; 5 °C; intercalation at TA/TA
[12] = tested on: D3; d(CCCTAGGG)2 (DNA, duplex) CCCTAGGG; test: 2D NMR (NOESY) and restrained MD structure; conditions: Na+ 10 mM (NaCl); 2.5 mM cacodylate pH 5.0; 5 °C; intercalation at TA/TA
[13] = unspecific, no intercalation site, duplex:ligand 1:1.5

Dissociation constant [2]: 0.145 µM
Dissociation constant [3]: 0.227 µM
Dissociation constant [4]: 0.608 µM
Dissociation constant [5]: 0.248 µM
SMILES: CN(C)CCCNc1ccc2nnn3c4ccc(O)cc4c(=O)c1c23
binding [1]: yes

binding [6, 13]: weak
binding ([7]; weaker than C-283): weak
SMILES: Cc1ccc([N+](=O)[O-])c2c(NCCO)c3ccccc3nc12

binding [6, 13]: weak
binding ([7]; presumably minor groove at centre, no defined intercalation): weak
SMILES: CN(C)CCCNc1c2ccccc2nc2cccc([N+](=O)[O-])c12

binding [8]: yes
binding ([6]; intercalation at TA/TA): yes
binding [9]: yes
binding [10]: yes
Dissociation constant [2]: 0.524 µM
Dissociation constant [3]: 0.260 µM
Dissociation constant [4]: 0.156 µM
SMILES: CCN(CC)CCNc1ccc2ncn3c4ccc(O)cc4c(=O)c1c23
binding [11]: yes
binding [12]: yes
